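The compound was tested at five concentrations on cells cultured in 96-well plates, with a 48-hour exposure period. The concentration for 50% growth inhibition is given as GI50.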 Calls of active or inactive are those of the source. No stated cut-off is given here; in the data, active = GI50 up to about 1.1 µM and inactive = higher.
Legend:
Test in all cases: NCI-60 cell line screen, 48 h
[1] = test system: UO-31
[2] = test system: LOX IMVI
[3] = test system: SF-295
[4] = test system: SR
[5] = test system: EKVX
[6] = test system: SF-539
[7] = test system: SW-620
[8] = test system: HCC 2998
[9] = test system: HT-29
[10] = test system: SN12C
[11] = test system: K562
[12] = test system: HCT-116
[13] = test system: M14
[14] = test system: NCI-H522
[15] = test system: DU-145
[16] = test system: A498
[17] = test system: Hs-578T
[18] = test system: MCF7
[19] = test system: BT-549

Measured: GI50

CC(=O)/C(=C\C1=CCCO1)C(=O)Nc1ccccc1C
inactive: [1] > 100 µM | [2] > 100 µM | [3] > 100 µM | [4] > 100 µM | [5] > 100 µM | [6] > 100 µM | [7] > 100 µM | [8] > 100 µM | [9] > 100 µM | [10] > 100 µM | [11] > 100 µM | [12] > 100 µM | [13] > 100 µM | [14] > 100 µM

O=c1ccc(=O)c2c1c1[nH]c3ccccc3c1c1c(=O)c3ccccc3c(=O)c21
inactive: [1] 5.66 µM | [2] > 10 µM | [3] > 10 µM | [15] > 10 µM | [16] > 10 µM | [17] > 10 µM | [4] > 10 µM | [5] > 10 µM | [6] > 10 µM | [7] 8.22 µM | [8] > 10 µM | [9] > 10 µM | [10] > 10 µM | [11] 5.32 µM | [12] > 10 µM | [13] > 10 µM | [14] > 10 µM

CC1(C)OC2[C@@H](CO[C@@]3([C@@H](O)CCO)OC(C)(C)O[C@@H]23)O1 (stereo not given in full)
inactive: [1] > 100 µM | [2] > 100 µM | [3] > 100 µM | [15] > 100 µM | [4] > 100 µM | [5] > 100 µM | [18] > 100 µM | [6] > 100 µM | [7] > 100 µM | [8] > 100 µM | [9] > 100 µM | [10] > 100 µM | [11] > 100 µM | [12] > 100 µM | [13] > 100 µM | [14] > 100 µM | [19] > 100 µM

COc1cc2c(cc1C)NC(=O)/C2=C\c1ccncc1
inactive: [1] 4.1 µM | [3] 4.99 µM | [15] 3.09 µM | [17] 3.6 µM | [4] 2.61 µM | [5] 6.7 µM | [18] 3.03 µM | [6] 2.82 µM | [7] 4.49 µM | [8] 12.3 µM | [9] 4.92 µM | [10] 6.15 µM | [11] 3.66 µM | [12] 2.34 µM | [13] 3.98 µM | [14] 2.94 µM

CC(C)(C)OC(=O)NCCNCCNc1ccccc1
inactive: [1] > 100 µM | [2] > 100 µM | [3] > 100 µM | [15] 90.8 µM | [4] > 100 µM | [5] > 100 µM | [18] > 100 µM | [6] > 100 µM | [7] > 100 µM | [8] > 100 µM | [9] > 100 µM | [10] > 100 µM | [11] > 100 µM | [12] > 100 µM | [13] > 100 µM | [14] > 100 µM | [19] > 100 µM

O=S1(=O)CSc2ccc3ccccc3c2-c2c1ccc1ccccc21
inactive: [1] > 100 µM | [2] > 100 µM | [3] > 100 µM | [4] > 100 µM | [6] > 100 µM | [7] > 100 µM | [8] > 100 µM | [9] > 100 µM | [10] > 100 µM | [11] > 100 µM | [12] > 100 µM | [13] > 100 µM | [14] > 100 µM

CCCCCNc1nonc1N
inactive: [1] > 100 µM | [2] > 100 µM | [3] > 100 µM | [15] > 100 µM | [16] > 84.9 µM | [17] > 72.8 µM | [4] > 100 µM | [5] > 100 µM | [18] > 100 µM | [6] > 100 µM | [7] > 100 µM | [8] > 100 µM | [9] > 100 µM | [10] > 100 µM | [11] > 100 µM | [12] > 100 µM | [13] > 100 µM | [14] > 100 µM

COC/C=C\[C@]1(O)CCCC[C@@H]1CC(OC)OC
inactive: [1] > 100 µM | [2] > 100 µM | [3] > 100 µM | [15] > 100 µM | [16] > 100 µM | [17] > 100 µM | [4] 81.1 µM | [5] > 100 µM | [18] > 100 µM | [6] > 100 µM | [7] > 100 µM | [8] > 100 µM | [9] > 100 µM | [11] 43.5 µM | [13] > 100 µM | [14] 67.5 µM

CC1=NN(c2cccc(Cl)c2)C2(SCC(=O)N2c2nc3ccccc3s2)/C1=C\c1ccc(N(C)C)cc1 (stereo not given)
inactive: [1] > 100 µM | [2] > 100 µM | [3] 42.2 µM | [15] > 100 µM | [16] 27.9 µM | [17] 21 µM | [4] 58.5 µM | [5] > 100 µM | [18] 38.7 µM | [6] 52.2 µM | [7] > 100 µM | [8] 88.7 µM | [9] > 100 µM | [11] 43.8 µM | [12] > 100 µM | [13] > 100 µM | [14] 65.8 µM
